Tested on: Pituitary tumor stem cells and adherent daughter cells
Test: WST-1 proliferation assay of resistance to chemotherapeutic treatment
Format: cell-based, human
Settings: 50 μM carboplatin and 12.5 μM VP16 for 48 h; stem cells compared with adherent cells
Procedure: Pituitary tumor stem cells and adherent daughter cells were also tested for the resistance to chemotherapeutic treatment. Cells were treated with 50 μM carboplatin and 12.5 μM VP16 for 48 h and the toxicity was assessed by WST-1 proliferation assay.

COc1cc([C@@H]2c3cc4c(cc3[C@@H](O[C@@H]3O[C@@H]5CO[C@@H](C)O[C@H]5[C@H](O)[C@H]3O)[C@H]3COC(=O)[C@H]23)OCO4)cc(OC)c1O [VP16]
toxicity assessed by WST-1 proliferation assay (resistance of pituitary tumor stem cells vs adherent daughter cells): significantly more resistant than the adherent cells

N.N.O=C([O-])C1(C(=O)[O-])CCC1.[Pt+2] [carboplatin]
toxicity assessed by WST-1 proliferation assay (resistance of pituitary tumor stem cells vs adherent daughter cells): significantly more resistant than the adherent cells

— patent US20100062477A1, “METHODS OF ISOLATING AND PROPAGATING STEM CELLS FROM BENIGN TUMORS” (CEDARS-SINAI MEDICAL CENTER, priority 2006, published 2010)
